According to patent US4704389A, “Aromatic omega-alkyl-imino-tetrahydro-6H-1,3-thiazin-6-one derivatives” (Merrell Dow Pharmaceuticals Inc., priority 1987, dated 1987):
Counter-ions that a name gives are not always drawn.

Legend:
[1] = tested on: naive adult male Sprague-Dawley rats; test: Rat licking (Vogel conflict) test for anxiolytic activity; assay type: in vivo; details: subcutaneous, 30 min before test, control 119 ± 30
Experimental: Following the procedure described by Vogel et al., Psychopharmacologia 21, 1-7 (1971), thirsty naive rats are periodically administered shocks in an appropriate test apparatus for licking water, thereby setting up a simple conflict procedure. In the following experiment, naive adult male Sprague-Dawley rats (approximately 170 g) are randomly divided into 5 groups and deprived of water for 48 hours prior to the test session. Food is available in the home cage at all times.
Thirty minutes following subcutaneous injection, each animal is placed in the apparatus, permitted to find the drinking tube and complete 20 licks before shock is administered. The test animal controls shock duration by withdrawing from the drinking tube. At the termination of the first shock, shocks are delivered following each twentieth lick. The number of licks, indicating the number of shocks taken during a 3 minute period is recorded for each animal, compared with placebo, and with animals treated with established anxiolytic agents. A "release" from suppressed licking response, i.e., a greater number of licks compared to controls, is predictive of anxiolytic activity.
Following essentially this same procedure, the following results are observed utilizing the compound of Example II, i.e., 2-[4-[4-(2-pyrimidinyl)-1-piperazinyl]butylimino]-tetrahydro-4,4-dimethyl- 6H-1,3-thiazin-6-one

5-HT1A recognition sites = target: T1, 5-HT1A recognition sites (Rattus norvegicus, UniProt P19327); test: 5-HT1A radioligand binding ([3H]-8-OH-DPAT); details: rat frontal cortex homogenate, 37° C. 15 min, read-out: 5-HT1A Binding Affinity Rat Brain Cortex (pIC50) (converted)
T1 sequence (P19327 1-422): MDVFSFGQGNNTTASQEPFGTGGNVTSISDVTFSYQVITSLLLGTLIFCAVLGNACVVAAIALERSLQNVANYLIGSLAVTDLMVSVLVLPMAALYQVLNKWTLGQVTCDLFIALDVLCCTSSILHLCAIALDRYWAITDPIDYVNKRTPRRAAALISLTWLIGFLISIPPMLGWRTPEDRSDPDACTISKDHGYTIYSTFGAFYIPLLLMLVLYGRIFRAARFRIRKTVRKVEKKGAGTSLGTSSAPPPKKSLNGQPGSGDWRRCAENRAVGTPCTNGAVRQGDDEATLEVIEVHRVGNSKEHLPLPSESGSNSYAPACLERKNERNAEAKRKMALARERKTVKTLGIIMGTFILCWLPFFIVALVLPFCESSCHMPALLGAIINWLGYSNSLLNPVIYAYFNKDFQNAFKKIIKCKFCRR
Experimental: Radioligand binding studies of the 5-HT1A recognition sites are conducted in the following manner. Male normotensive Sprague-Dawley rat frontal cortex is dissected, frozen in liquid nitrogen and stored at -20° C. until needed. Tissues from 4-8 rats are pooled and homogenized in 70 vol Tris-HCl buffer (50 mM, pH 7.7), using a kinematica Polytron (setting 2/3 max speed, 20 sec). The homogenate is centrifuged (36500×g for 10 min), the pellet re-homogenised in the same volume of buffer and the process is repeated two more times. Between the second and third centrifugations the tissue homogenate is incubated at 37° C. for 10 min. The final pellet is suspended in the same volume of Tris buffer containing 10 µM pargyline, 5.7 mM CaCl2 and 0.1% ascorbic acid. This suspension is incubated for 10 min at 37° C. and then stored on ice until used in the binding assay.
Tissue homogenate (0.7 ml), radioactive ligand (0.1 ml) and the appropriate concentration of test compound (0.1 ml), together with buffer to a final volume of 1 ml are incubated at 37° C. for 15 min. Incubations are terminated by rapid filtration through Whatman GF/B filters followed by three 5 ml washes with ice-cold Tris-HCl buffer (50 mM, pH 7.0). Radioactivity is measured following extraction into Aquasol-Z (NEN) at an efficiency of 45-50%. The radioligand used to label the 5-HT1A recognition sites and its concentration is [^3 H]-8-hydroxy-2-(di-n-propylamino)-tetralin, [^3 H]-8-OH-DPAT, […].
Following essentially the above procedure, the following compounds were tested. Results are expressed as pIC50 ([…] concentration of test compound which inhibits specific binding by 50%).

CN1C(=O)CN=C(c2ccccc2)c2cc(Cl)ccc21 [Diazepam, reference compound]
Licks taken over 3 min. period ([1]; dose 0.75 mg/kg): 247 ± 36

CC1(C)CC(=O)SC(=NCCCCNCC2COc3ccccc3O2)N1 (stereo not shown) [Example I, 2-[4-[(2,3-dihydro-1,4-benzodioxin-2-yl)methylamino]butylimino]-tetrahydro-4,4-dimethyl-6H-1,3-thiazin-6-one oxalate]
IC50 (5-HT1A recognition sites): 2.82 nM

CC1(C)CC(=O)SC(=NCCCCN2CCN(c3ncccn3)CC2)N1 [Example II, 2-[4-[4-(2-Pyrimidinyl)-1-piperazinyl]butylimino]-tetrahydro4,4-dimethyl-6H-1,3-thiazin-6-one]
IC50 (5-HT1A recognition sites): 47.9 nM
Licks taken over 3 min. period ([1]; dose 0.05 mg/kg): 150 ± 28
Licks taken over 3 min. period ([1]; dose 0.25 mg/kg): 223 ± 34
Licks taken over 3 min. period ([1]; dose 1.25 mg/kg): 220 ± 27

O=C1CC2(CCCC2)NC(=NCCCCN2CCN(c3ncccn3)CC2)S1 [Example III, 2-[4-[4-(2-Pyrimidinyl)-1-piperazinyl]-butylimino]-tetrahydro-4,4-tetramethylene-6H-1,3-thiazin-6-one]
IC50 (5-HT1A recognition sites): 166 nM
